Results taken from article PMC9774334 (ACS Omega, 2022).

How the values were obtained:
ClAgl29B = molecular target: T1, ClAgl29B (Cecembia lonarensis, UniProt K1KV82); test: X-ray crystal structure, […] Å, soaking; type: binding; details: active site; crystal pH 3.5, 30 mM L-glucose soak
T1 sequence (K1KV82 21-586): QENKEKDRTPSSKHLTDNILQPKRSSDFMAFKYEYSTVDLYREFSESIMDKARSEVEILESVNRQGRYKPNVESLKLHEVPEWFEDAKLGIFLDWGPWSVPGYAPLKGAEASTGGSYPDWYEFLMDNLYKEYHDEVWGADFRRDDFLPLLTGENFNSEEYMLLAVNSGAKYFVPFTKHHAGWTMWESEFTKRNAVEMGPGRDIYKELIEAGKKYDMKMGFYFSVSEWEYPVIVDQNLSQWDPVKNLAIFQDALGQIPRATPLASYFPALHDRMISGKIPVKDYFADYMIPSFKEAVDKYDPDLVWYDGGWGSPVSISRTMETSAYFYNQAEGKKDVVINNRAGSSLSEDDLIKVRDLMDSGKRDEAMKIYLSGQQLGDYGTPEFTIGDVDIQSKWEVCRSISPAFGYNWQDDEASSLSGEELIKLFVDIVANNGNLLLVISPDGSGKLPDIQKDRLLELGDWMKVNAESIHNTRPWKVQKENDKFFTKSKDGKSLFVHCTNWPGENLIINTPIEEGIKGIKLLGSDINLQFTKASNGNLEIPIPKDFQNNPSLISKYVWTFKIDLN

TmaFuc = molecular target: T2, TmaFuc (Thermotoga maritima, UniProt Q9WYE2); test: p-nitrophenol release at […] nm; type: biochemical; details: 2 mM substrate
T2 sequence (Q9WYE2 1-449): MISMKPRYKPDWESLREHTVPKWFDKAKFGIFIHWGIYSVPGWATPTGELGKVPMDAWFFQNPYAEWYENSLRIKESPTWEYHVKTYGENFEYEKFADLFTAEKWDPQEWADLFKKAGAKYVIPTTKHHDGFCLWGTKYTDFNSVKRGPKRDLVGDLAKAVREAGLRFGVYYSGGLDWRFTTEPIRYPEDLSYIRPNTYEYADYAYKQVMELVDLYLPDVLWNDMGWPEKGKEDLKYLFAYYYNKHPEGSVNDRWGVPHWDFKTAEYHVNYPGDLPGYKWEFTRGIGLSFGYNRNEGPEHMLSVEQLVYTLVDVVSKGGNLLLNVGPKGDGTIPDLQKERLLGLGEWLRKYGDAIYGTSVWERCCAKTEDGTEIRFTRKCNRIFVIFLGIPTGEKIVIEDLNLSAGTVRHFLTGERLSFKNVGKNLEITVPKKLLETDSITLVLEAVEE

p-nitrophenol release at 400 nm (TmaFuc) | SMILES | X-ray crystal structure, 1.7 Å, soaking (ClAgl29B)
 | OC[C@@H]1O[C@H](O)[C@@H](O)[C@H](O)[C@H]1O [β-L-glucose] | The ClAgl29B complex obtained with β-L-glucose by a soaking experiment
TmaFuc hydrolyzed PNP α-L-Fuc | C[C@@H]1O[C@@H](Oc2ccc([N+](=O)[O-])cc2)[C@@H](O)[C@H](O)[C@@H]1O [PNP α-L-Fuc] | 
